Data reported in article PMC9127750, “Structure-based design of CDC42 effector interaction inhibitors for the treatment of cancer” (Cell reports, 2022).

Tested on: WM3248 melanoma cells, 486 antibodies
Assay: Reverse phase protein arrays (RPPA);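 on Cyclin.B1.R.V RPPA level: ratio of treated to vehicle (0 µM) normalized linear protein signal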;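 on Cyclin.E1.R.V RPPA level: ratio of treated to vehicle (0 µM) normalized linear protein signal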;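 on DDB.1.R.V RPPA level: ratio of treated to vehicle (0 µM) normalized linear protein signal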;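 on RPPA ACC1.R.C: ratio of treated to vehicle (0 µM) normalized linear protein signal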;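 on RPPA ASNS.R.V: ratio of treated to vehicle (0 µM) normalized linear protein signal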;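 on RPPA AceCS1.R.V: ratio of treated to vehicle (0 µM) normalized linear protein signal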;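 on RPPA Akt1.R.V: ratio of treated to vehicle (0 µM) normalized linear protein signal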;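 on RPPA Atg5.R.C: ratio of treated to vehicle (0 µM) normalized linear protein signal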;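 on RPPA Bim.R.V: ratio of treated to vehicle (0 µM) normalized linear protein signal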
Type: cell-based, Human
Settings: 20 uM, Average
From the text: Pellets were snap frozen in liquid nitrogen and shipped to MD Anderson Cancer Center core RPPA facility for RPPA analysis (Table S5). Three biological replicates for each sample were generated.
Nomenclatures on the RPPA heatmaps: name_of_antibody.species_of_antibody.status_of_antibody. V - antibody validated; C - validation of antibody in progress; Q - antibody nonspecific; E – under evaluation; antibodies raised in M - mouse, G - goat, R - rabbit, or T - rat.

SMILES: CN(C)c1cccc(Nc2cc(-c3ccccc3)nc(C3CCNCC3)n2)c1 [ARN22089, N1,N1-dimethyl-N3-(6-phenyl-2-(piperidin-4-yl)pyrimidin-4-yl)benzene-1,3-diamine]
- Caspase.8.cleaved.R.C RPPA level: 1.025
- Caveolin.1.R.V RPPA level: 0.842
- Cdc6.R.V RPPA level: 0.862
- Cdc42.R.C RPPA level: 1.017
- Chk1.M.C RPPA level: 0.898
- Chk1_pS345.R.C RPPA level: 1.107
- Chk2_pT68.R.C RPPA level: 1.241
- Complex.II.Subunit.M.V RPPA level: 0.945
- Coup.TFII.R.C RPPA level: 0.941
- Cox2.R.C RPPA level: 1.267
- Cox.IV.R.V RPPA level: 0.997
- CtIP.R.V RPPA level: 0.950
- Cyclin.B1.R.V RPPA level: 1.134
- Cyclin.D3.M.V RPPA level: 0.840
- Cyclin.E1.R.V RPPA level: 0.959
- Cyclophilin.F.M.V RPPA level: 0.926
- D.a.Tubulin.R.V RPPA level: 1.029
- DAPK1_pS308.M.C RPPA level: 1.208
- DAPK2.R.C RPPA level: 1.003
- DDB.1.R.V RPPA level: 0.948
- DDR1.R.V RPPA level: 1.002
- DDR1_pY513.R.C RPPA level: 1.125
- DJ1.R.V RPPA level: 0.948
- DM.Histone.H3.R.V RPPA level: 2.021
- DM.K9.Histone.H3.M.V RPPA level: 1.447
- DNA.Ligase.IV.R.C RPPA level: 0.981
- DNA_POLG.R.V RPPA level: 1.025
- RPPA A.Raf.R.V: 1.015
- RPPA A.Raf_pS299.R.C: 1.034
- RPPA ACC1.R.C: 0.857
- RPPA ACLY_pS455.R.V: 1.046
- RPPA ACSL1.R.V: 0.954
- RPPA ACVRL1.R.C: 1.002
- RPPA ADAR1.M.V: 1.149
- RPPA ALKBH5.R.V: 1.061
- RPPA AMPK.a2_pS345.R.V: 1.050
- RPPA AMPKa.R.C: 1.055
- RPPA AMPKa_pT172.R.C: 2.324
- RPPA AR.R.V: 1.058
- RPPA ARID1A.R.C: 1.550
- RPPA ASNS.R.V: 0.982
- RPPA ATM.R.V: 0.922
- RPPA ATM_pS1981.R.V: 1.048
- RPPA ATP5A.M.C: 1.010
- RPPA ATR.R.V: 0.999
- RPPA ATRX.R.C: 1.085
- RPPA ATR_pS428.R.C: 1.058
- RPPA AceCS1.R.V: 0.988
- RPPA Akt1.R.V: 0.884
- RPPA Akt1_pS473.R.V: 1.015
- RPPA Akt2.R.V: 0.884
- RPPA Akt2_pS474.R.C: 1.034
- RPPA Akt.R.V: 0.924
- RPPA Akt_pS473.R.V: 0.837
- RPPA Ambra1_pS52.R.C: 1.060
- RPPA Annexin.I.M.V: 0.985
- RPPA Annexin.VII.M.V: 0.970
- RPPA Atg3.R.V: 0.967
- RPPA Atg4B.R.C: 0.915
- RPPA Atg5.R.C: 0.922
- RPPA Atg7.R.V: 0.846
- RPPA Aurora.A.R.C: 1.195
- RPPA Aurora.ABC_pT288_pT232_pT198.R.C: 0.954
- RPPA Aurora.B.R.V: 1.362
- RPPA Axl.R.V: 0.993
- RPPA B7.H3.R.C: 0.942
- RPPA B7.H4.R.C: 0.993
- RPPA B.Raf.R.C: 0.957
- RPPA BAP1.M.V: 0.964
- RPPA BCL2A1.R.V: 1.025
- RPPA BMK1.Erk5_pT218_Y220.R.V: 0.950
- RPPA BRCA1.M.C: 1.124
- RPPA BRD4.R.V: 1.303
- RPPA Bak.R.C: 1.033
- RPPA Bax.R.V: 1.025
- RPPA Bcl2.R.C: 1.107
- RPPA Bcl.xL.R.V: 1.064
- RPPA Beclin.R.C: 0.977
- RPPA BiP.GRP78.M.C: 0.989
- RPPA Bid.R.C: 0.971
- RPPA Bim.R.V: 1.023
- RPPA DNMT1.R.V: 0.908
- RPPA DRP1.R.V: 0.953
- RPPA DUSP4.R.V: 0.738
- RPPA DUSP6.R.C: 1.449
- RPPA DYRK1B.R.C: 1.005
- RPPA Dvl3.R.V: 1.056
- RPPA E2F1.R.V: 1.239
- RPPA E.Cadherin.R.V: 0.959
- RPPA EGFR.R.V: 1.079
- RPPA EGFR_pY1068.R.C: 0.971
- RPPA EMA.M.C: 0.929
- RPPA ENY2.M.C: 0.931
- RPPA ER.a.R.V: 0.988
- RPPA ER.a_pS118.R.V: 1.453
- RPPA ERCC1.R.C: 1.065
- RPPA ERCC5.R.C: 1.014
- RPPA ERRalpha.R.V: 1.009
- RPPA Elk1_pS383.R.C: 1.100
- RPPA Enolase.1.R.V: 0.939
- RPPA Enolase.2.R.V: 0.991
- RPPA EphA2.R.V: 0.816
- RPPA EphA2_pS897.R.C: 0.726
- RPPA EphA2_pY588.R.C: 1.016
- RPPA Erk5.R.V: 0.946
- RPPA Ets.1.R.V: 1.154
- RPPA FABP5.R.C: 1.025
- RPPA FAK.R.C: 1.003
- RPPA FAK_pY397.R.V: 1.007
- RPPA FANCD2.R.V: 0.924
- RPPA FASN.R.V: 0.845
- RPPA FGF.basic.R.C: 0.992
- RPPA FOXM1.R.V: 1.057
- RPPA FOXO3.R.V: 1.019
- RPPA FRS2.alpha_pY196.R.V: 1.009
- RPPA FTO.R.V: 0.977
- RPPA Fibronectin.R.V: 0.989
- RPPA FoxO3a_pS318_S321.R.C: 1.005
- RPPA G6PD.R.V: 0.983
- RPPA GATA6.R.V: 0.981
- RPPA GCLC.R.C: 0.993
- RPPA GCLM.R.V: 0.999
- RPPA GCN5L2.R.V: 1.002
- RPPA GRB2.R.V: 0.956
- RPPA GSK.3B.R.C: 0.901
- RPPA GSK.3a.b.M.V: 0.957
- RPPA GSK.3a.b_pS21_S9.R.V: 1.052
- RPPA Gli1.R.C: 0.953
- RPPA Gli3.R.C: 1.116
- RPPA Glucocorticoid.Receptor.R.V: 1.130
- RPPA Glutaminase.R.C: 1.024
- RPPA Grp75.R.C: 1.172
- RPPA Gys.R.V: 1.003
- RPPA Gys_pS641.R.V: 0.884
- RPPA H2AX_pS139.R.C: 1.441
- RPPA H2AX_pS140.M.C: 1.148
- RPPA HER2.M.V: 0.983
- RPPA HER2_pY1248.R.V: 1.026
- RPPA HER3.R.V: 0.916
- RPPA HER3_pY1289.R.C: 1.009
- RPPA HES1.R.V: 1.049
- RPPA Heregulin.R.V: 1.013
- RPPA X4E.BP1.R.V: 1.246
- RPPA X4E.BP1_pS65.R.V: 0.859
- RPPA X4E.BP1_pT37_T46.R.V: 0.868
- RPPA X14.3.3.zeta.R.V: 0.922
- RPPA X14.3.3βR.V: 1.078
- RPPA X14.3.3εM.C: 0.929
- RPPA X53BP1.R.V: 1.047
- RPPA b.Actin.R.C: 1.098
- RPPA b.Catenin.R.V: 0.957
- RPPA c.Abl.R.V: 1.129
- RPPA c.Abl_pY412.R.C: 1.034
- RPPA c.IAP2.R.C: 1.063
- RPPA eEF2K.R.V: 1.262
- RPPA eIF4E.R.V: 1.164
- RPPA eIF4E_pS209.R.V: 1.101
- RPPA eIF4G.R.C: 1.116
- RPPA level HLA.DQA1.R.V: 1.019
- RPPA level HLA.DR.DP.DQ.DX.R.C: 1.117
- RPPA level HNRNPK.R.V: 1.028
- RPPA level HSP27.M.C: 0.864
- RPPA level HSP60.R.V: 1.000
